In patent US11420970B1 (NOVARTIS AG, priority 2019, dated 2022) one finds IC50 data, which are given here for 21 compounds.

A word on the pIC50: it is the negative decadic logarithm of the IC50, by convention in mol/L.

Each structure is given as a SMILES string. pIC50: −log10 of the molar value. Some results are limits rather than exact numbers.

The first assay deals with NSD2 [1-1365] (Homo sapiens (Human), UniProt O96028). In words: LC-MS/MS-based NSD2 enzymatic assay (SAH production). Format: biochemical. The conditions noted are these: NSD2 biochemical activity, class symbols; read-out: NSD2 IC50. As to the method: LC-MS/MS-Based NSD2 Enzymatic Assay
NSD2 [1-1365], sequence (O96028 whole entry): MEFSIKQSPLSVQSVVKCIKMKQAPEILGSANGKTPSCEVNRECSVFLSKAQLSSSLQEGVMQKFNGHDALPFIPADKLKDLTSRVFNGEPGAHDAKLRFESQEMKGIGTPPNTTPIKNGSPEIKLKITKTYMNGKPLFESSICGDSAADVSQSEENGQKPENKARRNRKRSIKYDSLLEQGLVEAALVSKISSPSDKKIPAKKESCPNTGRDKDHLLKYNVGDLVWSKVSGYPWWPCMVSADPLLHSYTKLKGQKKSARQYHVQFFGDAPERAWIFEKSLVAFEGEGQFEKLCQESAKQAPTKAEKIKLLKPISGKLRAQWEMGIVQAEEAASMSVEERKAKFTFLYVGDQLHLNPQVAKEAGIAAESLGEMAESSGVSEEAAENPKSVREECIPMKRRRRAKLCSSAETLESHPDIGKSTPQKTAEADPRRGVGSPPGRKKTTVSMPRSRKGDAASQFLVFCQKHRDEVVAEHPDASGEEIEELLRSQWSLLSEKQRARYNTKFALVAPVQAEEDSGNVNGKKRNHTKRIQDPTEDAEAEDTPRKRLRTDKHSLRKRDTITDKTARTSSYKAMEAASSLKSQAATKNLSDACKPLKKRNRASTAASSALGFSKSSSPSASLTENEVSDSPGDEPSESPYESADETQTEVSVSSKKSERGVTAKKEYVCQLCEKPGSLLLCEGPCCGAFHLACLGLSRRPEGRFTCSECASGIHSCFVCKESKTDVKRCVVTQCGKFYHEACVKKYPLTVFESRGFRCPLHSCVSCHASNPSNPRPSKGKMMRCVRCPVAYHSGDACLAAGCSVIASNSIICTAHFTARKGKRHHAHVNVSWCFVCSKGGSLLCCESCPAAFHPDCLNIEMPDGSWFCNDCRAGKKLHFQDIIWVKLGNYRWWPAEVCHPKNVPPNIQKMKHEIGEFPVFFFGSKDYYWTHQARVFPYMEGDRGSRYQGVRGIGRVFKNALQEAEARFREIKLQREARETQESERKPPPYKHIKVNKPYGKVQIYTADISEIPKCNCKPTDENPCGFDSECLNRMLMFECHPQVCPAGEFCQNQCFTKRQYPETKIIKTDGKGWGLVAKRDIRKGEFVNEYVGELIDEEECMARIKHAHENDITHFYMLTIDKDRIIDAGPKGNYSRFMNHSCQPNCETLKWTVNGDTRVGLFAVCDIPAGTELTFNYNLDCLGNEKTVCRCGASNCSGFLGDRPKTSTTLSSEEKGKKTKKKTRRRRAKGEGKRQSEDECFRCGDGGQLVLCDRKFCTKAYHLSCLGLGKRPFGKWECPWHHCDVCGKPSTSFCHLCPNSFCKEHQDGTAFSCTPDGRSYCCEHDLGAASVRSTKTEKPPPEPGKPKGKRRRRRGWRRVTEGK
This assay employed LC-MS/MS technology to monitor the SAH production from the NSD2 enzymatic reaction. The enzymatic reaction was performed in white proxiplate plus 384-well microplate (Perkin Elmer). The reaction mixture (10 μL) were composed of 8 nM NSD2 [1-1365], […] SAM (USB, 10601) and 400 nM nucleosome (purified from mouse liver) in reaction buffer (20 mM Tris-HCl, pH at 8.0, 0.01% Tween 20, 10 mM MgCl2, 50 mM NaCl, 1 mM DTT, 1 mM TCEP (pH7.5)). After 90 min incubation at room temperature, 3 μL quenching solution containing 2.5% TFA with 320 nM d4-SAH was added to stop the reaction.
For the inhibition assay, compound solutions were transferred into the wells by Mosquito™ (TTP LabTech). The inhibition assays were carried out by preincubating various concentrations of the inhibitor with 5 uL reaction mixture containing 16 nM NSD2 [1-1365] and 2 uM SAM (USB, 10601) in reaction buffer. After 20 min preincubation, 5 uL solution containing 800 nM nucleosome (purified from mouse liver) in reaction buffer was added to initiate the reaction. The reaction was stopped by 3 μL quenching solution containing 2.5% TFA with 320 nM d4-SAH after 90 min.
The SAH production from the enzymatic assays were monitored by LC-MS/MS on an API 4000 triple quadrupole mass spec with Turbolon Spray (Applied Biosystem) coupled with Prominenece UFLC(Shimazu). Liquid chromatography was performed on a Chromolith FastGradient HPLC column (RP-18e, 25-2 mm, from Merck) at a flow rate of 0.8 ml/min. The column was connected directly to the turbo ion electrospray operating in the positive-ion mode. Mobile phase A is 0.1% FA and 2% methanol in water and mobile phase B is 0.1% FA in ACN. Injection volume was 3 μl and the autosampler was kept at 4 degree. SAH and d4-SAH were simultaneously monitored. Data were acquired and processed by Analyst software.
To quantify the formed SAH, d4-SAH was added as internal standard (IS). A series of SAH (Sigma, A9384) solution at varying concentration (1-500 nM in reaction buffer) was mixed with quenching solution mentioned above. Then LC-MS/MS was carried out on API 4000 LC/MS/MS system to detect both SAH and d4-SAH. The plot of SAH peak area/IS peak area vs SAH concentration was used to generate the normalization factor of SAH. The SAH production from real enzymatic reaction was derived from the standard curve of SAH. The down-limit of our system for the detection of SAH is around 1-2 nM, and the linear range can reach up to 500 nM.
As for `Cn1ncc2cc(-c3cc(Cn4cnc5c(N)ncnc54)c(N4CCC[C@](N)([C@H](O)C(F)F)C4)cn3)c(F)cc21` [Example 143, (S)-1-((R)-3-amino-1-(4-((6-amino-9H-purin-9-yl)methyl)-6-(6-fluoro-1-methyl-1H-indazol-5-yl)pyridin-3-yl)piperidin-3-yl)-2,2-difluoroethan-1-ol], the pIC50 was 6.00 to 8.00. `COc1cc(F)c(-c2ncc(N3CCC[C@](N)([C@H](O)C(F)F)C3)c(Cn3cnc4c(N)ncnc43)c2F)cc1F` [Example 149, (S)-1-((R)-3-amino-1-(4-((6-amino-9H-purin-9-yl)methyl)-6-(2,5-difluoro-4-methoxyphenyl)-5-fluoropyridin-3-yl)piperidin-3-yl)-2,2-difluoroethan-1-ol]: the pIC50 is 6.00 to 8.00.

The assay is the same for the next values; noted with them: read-out: NSD2 IC50.
As for `Nc1ncnc2c1ncn2Cc1cc(-c2ccc3c(c2)CCO3)ncc1N1CCC[C@](N)(c2cccc(Cl)n2)C1` [Example 185, (R)-9-((5-(3-amino-3-(6-chloropyridin-2-yl)piperidin-1-yl)-2-(2,3-dihydrobenzofuran-5-yl)pyridin-4-yl)methyl)-9H-purin-6-amine], the pIC50 is 6.00 to 8.00.

With `Nc1ncnc2c1ncn2Cc1cc(-c2ccc(F)cc2)ncc1N1CCCC(N)(c2ccc(F)cn2)C1` (stereo not drawn) [Example 189, 9-((5-(3-amino-3-(5-fluoropyridin-2-yl)piperidin-1-yl)-2-(4-fluorophenyl)pyridin-4-yl)methyl)-9H-purin-6-amine], the pIC50 was 6.00 to 8.00. Consider `Nc1ncnc2c1ncn2Cc1cc(C2CC2)ncc1N1CCC[C@](N)(c2cccc(Cl)n2)C1` [Example 204, (R)-9-((5-(3-amino-3-(6-chloropyridin-2-yl)piperidin-1-yl)-2-cyclopropylpyridin-4-yl)methyl)-9H-purin-6-amine], for which the negative-log IC50 (pIC50) is 6.00 to 8.00. Consider `COc1ccc(-c2cc(Cn3cnc4c(N)ncnc43)c(N3CCC[C@](N)(c4ccc(F)c(C)n4)C3)cn2)cc1F` [Example 207, (R)-9-((5-(3-amino-3-(5-fluoro-6-methylpyridin-2-yl)piperidin-1-yl)-2-(3-fluoro-4-methoxyphenyl)pyridin-4-yl)methyl)-9H-purin-6-amine], for which the pIC50 was 6.00 to 8.00.

With `Nc1ncnc2c1ncn2Cc1cc(-c2ccc3nccn3c2)ncc1N1CCCC(N)(c2cccc(Cl)n2)C1` (stereo not drawn) [Example 210, 9-((5-(3-amino-3-(6-chloropyridin-2-yl)piperidin-1-yl)-2-(imidazo[1,2-a]pyridin-6-yl)pyridin-4-yl)methyl)-9H-purin-6-amine], the pIC50 was 6.00 to 8.00. In the case of `CC(O)c1ccc([C@@]2(N)CCCN(c3cnc(-c4ccc(F)c(F)c4)cc3Cn3cnc4c(N)ncnc43)C2)nc1F` (stereo partly drawn) [Example 215, 1-(6-((R)-3-amino-1-(4-((6-amino-9H-purin-9-yl)methyl)-6-(3,4-difluorophenyl)pyridin-3-yl)piperidin-3-yl)-2-fluoropyridin-3-yl)ethan-1-ol], the negative-log IC50 (pIC50) is 6.00 to 8.00. Still for that read-out and setting: as for `Cn1cnc2ccc(-c3cc(Cn4cnc5c(N)ncnc54)c(N4CCCC(N)(c5cccc(Cl)n5)C4)cn3)cc21` (stereo not drawn) [Example 220, 9-((5-(3-amino-3-(6-chloropyridin-2-yl)piperidin-1-yl)-2-(1-methyl-1H-benzo[d]imidazol-6-yl)pyridin-4-yl)methyl)-9H-purin-6-amine], the figure is 6.00 to 8.00.

For the compound `Nc1ncnc2c1ncn2Cc1cc(-c2ccc3ccnn3c2)ncc1N1CCCC(N)(c2cccc(Cl)n2)C1` (stereo not drawn) [Example 222, 9-((5-(3-amino-3-(6-chloropyridin-2-yl)piperidin-1-yl)-2-(pyrazolo[1,5-a]pyridin-6-yl)pyridin-4-yl)methyl)-9H-purin-6-amine], the pIC50 was 6.00 to 8.00. For `N#Cc1ccc(-c2cc(Cn3cnc4c(N)ncnc43)c(N3CCCC(N)(c4cccc(Cl)n4)C3)cn2)cc1F` (stereo not drawn) [Example 223], the pIC50 was 6.00 to 8.00. In the case of `Nc1ncnc2c1ncn2Cc1cc(-c2ccc(F)c(F)c2)ncc1N1CCCC(N)(c2ccc(Cl)nn2)C1` (stereo not drawn) [Example 249, 9-((5-(3-amino-3-(6-chloropyridazin-3-yl)piperidin-1-yl)-2-(3,4-difluorophenyl)pyridin-4-yl)methyl)-9H-purin-6-amine], the negative logarithm of the IC50 (pIC50) was 8.00 to 9.00. Take `CCc1cncc([C@@]2(N)CCCN(c3cnc(-c4ccc(F)cc4)cc3Cn3cnc4c(N)ncnc43)C2)n1` [Example 250, (R)-9-((5-(3-amino-3-(6-ethylpyrazin-2-yl)piperidin-1-yl)-2-(4-fluorophenyl)pyridin-4-yl)methyl)-9H-purin-6-amine]: the pIC50 was 6.00 to 8.00. For `CCc1cncc([C@@]2(N)CCCN(c3cnc(-c4ccc(F)cc4)cc3Cn3cnc4c(N)nccc43)C2)n1` [Example 256, (R)-1-((5-(3-amino-3-(6-ethylpyrazin-2-yl)piperidin-1-yl)-2-(4-fluorophenyl)pyridin-4-yl)methyl)-1H-imidazo[4,5-c]pyridin-4-amine], the pIC50 is 6.00 to 8.00. As for `Nc1nccc2c1ncn2Cc1cc(N2CCC2)ncc1N1CCCC(N)(c2cccc(Cl)n2)C1` (stereo not drawn) [Example 265, 1-((5-(3-amino-3-(6-chloropyridin-2-yl)piperidin-1-yl)-2-(azetidin-1-yl)pyridin-4-yl)methyl)-1H-imidazo[4,5-c]pyridin-4-amine], the pIC50 is < 6.00.

For `Nc1ncnc2c1ncn2Cc1cc(-c2ccc(F)cc2)ncc1N1CCC[C@](N)(c2ccn(C(F)F)n2)C1` [Example 273, (R)-9-((5-(3-amino-3-(1-(difluoromethyl)-1H-pyrazol-3-yl)piperidin-1-yl)-2-(4-fluorophenyl)pyridin-4-yl)methyl)-9H-purin-6-amine], the pIC50 is 8.00 to 9.00. On the same count and under the same terms, the same measure for `Cn1ccc([C@@]2(N)CCCN(c3cnc(-c4ccc(F)c(F)c4)cc3Cn3cnc4c(N)ncnc43)C2)n1` [Example 275, (R)-9-((5-(3-amino-3-(1-methyl-1H-pyrazol-3-yl)piperidin-1-yl)-2-(3,4-difluorophenyl)pyridin-4-yl)methyl)-9H-purin-6-amine]: 8.00 to 9.00; for `CCn1ccc([C@@]2(N)CCCN(c3cnc(C4CC4)cc3Cn3cnc4c(N)nccc43)C2)n1` [Example 276, (R)-1-((5-(3-amino-3-(1-ethyl-1H-pyrazo1-3-yl)piperidin-1-yl)-2-cyclopropylpyridin-4-yl)methyl)-1H-imidazo[4,5-c]pyridin-4-amine]: 6.00 to 8.00. As for `Nc1nccc2c1ncn2Cc1cc(-c2ccc(F)cc2)ncc1N1CCC[C@](N)(c2ccn(C(F)F)n2)C1` [Example 279, (R)-1-((5-(3-amino-3-(1-(difluoromethyl)-1H-pyrazol-3-yl)piperidin-1-yl)-2-(4-fluorophenyl)pyridin-4-yl)methyl)-1H-imidazo[4,5-c]pyridin-4-amine], the pIC50 is 8.00 to 9.00.

Take `Nc1ncnc2c1ncn2Cc1cc(-c2ccc(F)c(F)c2)ncc1N1CCCC(N)(C(F)CF)C1` (stereo not drawn) [Example 287, 9-((5-(3-amino-3-(1,2-difluoroethyl)piperidin-1-yl)-2-(3,4-difluorophenyl)pyridin-4-yl)methyl)-9H-purin-6-amine]: the pIC50 was 6.00 to 8.00. Regarding `Nc1ncnc2c1ncn2Cc1cc(-c2ccc(F)c(F)c2)ncc1N1CCC[C@]2(COC(=O)N2)C1` [Example 292, (R)-7-(4-((6-amino-9H-purin-9-yl)methyl)-6-(3,4-difluorophenyl)pyridin-3-yl)-3-oxa-1,7-diazaspiro[4.5]decan-2-one], the pIC50 is 6.00 to 8.00.
